Assay results reported in ChEMBL document CHEMBL5465560, “Selectivity Literature for EUbOPEN Chemogenomic Library” (2024).

Assays:
[1] = target: Serine/threonine-protein kinase 38-like (Homo sapiens) (UniProt Q9Y2H1); test: Selectivity interaction (ActivX KiNativ screen (kinase selectivity in THP-1 cell lysates)) EUB0000639a STK38L; assay type: subcellular; details: lysate, at 0.04 µM
[2] = target: Histone-lysine N-methyltransferase PRDM9 (Homo sapiens) (UniProt Q9NQV7); details: at 10 µM
[3] = target: T1, Phosphatidylinositol 4,5-bisphosphate 3-kinase catalytic subunit delta isoform (Homo sapiens) (UniProt O00329); test: Selectivity interaction (KinomeScan (DiscoverX)) EUB0000695a PIK3CD; details: at 100 nM
T1 sequence (whole entry): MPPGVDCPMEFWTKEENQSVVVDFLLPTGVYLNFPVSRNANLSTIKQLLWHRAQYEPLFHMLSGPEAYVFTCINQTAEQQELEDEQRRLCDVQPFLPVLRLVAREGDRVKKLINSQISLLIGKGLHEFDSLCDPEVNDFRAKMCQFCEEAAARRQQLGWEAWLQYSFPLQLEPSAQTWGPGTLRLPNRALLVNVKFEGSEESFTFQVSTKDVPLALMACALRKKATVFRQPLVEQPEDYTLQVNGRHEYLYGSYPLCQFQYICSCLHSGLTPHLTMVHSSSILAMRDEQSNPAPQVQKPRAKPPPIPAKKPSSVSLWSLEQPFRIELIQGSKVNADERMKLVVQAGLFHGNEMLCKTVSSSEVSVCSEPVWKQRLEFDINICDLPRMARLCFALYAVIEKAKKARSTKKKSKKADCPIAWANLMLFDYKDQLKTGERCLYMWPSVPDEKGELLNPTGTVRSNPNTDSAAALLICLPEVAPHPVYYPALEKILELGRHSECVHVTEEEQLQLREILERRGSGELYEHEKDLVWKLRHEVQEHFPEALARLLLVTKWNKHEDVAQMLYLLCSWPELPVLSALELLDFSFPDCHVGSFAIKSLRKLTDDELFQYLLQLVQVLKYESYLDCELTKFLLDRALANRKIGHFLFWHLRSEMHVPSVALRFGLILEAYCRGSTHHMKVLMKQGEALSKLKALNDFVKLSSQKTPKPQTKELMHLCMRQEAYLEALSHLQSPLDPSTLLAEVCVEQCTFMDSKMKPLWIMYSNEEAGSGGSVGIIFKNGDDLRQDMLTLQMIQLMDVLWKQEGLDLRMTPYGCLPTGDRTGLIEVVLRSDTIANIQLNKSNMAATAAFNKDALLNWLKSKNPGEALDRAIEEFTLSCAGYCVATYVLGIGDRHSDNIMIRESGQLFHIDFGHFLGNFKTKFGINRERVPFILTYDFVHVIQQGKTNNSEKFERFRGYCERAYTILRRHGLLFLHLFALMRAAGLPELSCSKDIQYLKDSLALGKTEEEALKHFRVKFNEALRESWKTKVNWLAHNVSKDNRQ

[4] = target: T2, Ephrin type-A receptor 1 (Homo sapiens) (UniProt P21709); details: at 10 µM
T2 sequence (whole entry): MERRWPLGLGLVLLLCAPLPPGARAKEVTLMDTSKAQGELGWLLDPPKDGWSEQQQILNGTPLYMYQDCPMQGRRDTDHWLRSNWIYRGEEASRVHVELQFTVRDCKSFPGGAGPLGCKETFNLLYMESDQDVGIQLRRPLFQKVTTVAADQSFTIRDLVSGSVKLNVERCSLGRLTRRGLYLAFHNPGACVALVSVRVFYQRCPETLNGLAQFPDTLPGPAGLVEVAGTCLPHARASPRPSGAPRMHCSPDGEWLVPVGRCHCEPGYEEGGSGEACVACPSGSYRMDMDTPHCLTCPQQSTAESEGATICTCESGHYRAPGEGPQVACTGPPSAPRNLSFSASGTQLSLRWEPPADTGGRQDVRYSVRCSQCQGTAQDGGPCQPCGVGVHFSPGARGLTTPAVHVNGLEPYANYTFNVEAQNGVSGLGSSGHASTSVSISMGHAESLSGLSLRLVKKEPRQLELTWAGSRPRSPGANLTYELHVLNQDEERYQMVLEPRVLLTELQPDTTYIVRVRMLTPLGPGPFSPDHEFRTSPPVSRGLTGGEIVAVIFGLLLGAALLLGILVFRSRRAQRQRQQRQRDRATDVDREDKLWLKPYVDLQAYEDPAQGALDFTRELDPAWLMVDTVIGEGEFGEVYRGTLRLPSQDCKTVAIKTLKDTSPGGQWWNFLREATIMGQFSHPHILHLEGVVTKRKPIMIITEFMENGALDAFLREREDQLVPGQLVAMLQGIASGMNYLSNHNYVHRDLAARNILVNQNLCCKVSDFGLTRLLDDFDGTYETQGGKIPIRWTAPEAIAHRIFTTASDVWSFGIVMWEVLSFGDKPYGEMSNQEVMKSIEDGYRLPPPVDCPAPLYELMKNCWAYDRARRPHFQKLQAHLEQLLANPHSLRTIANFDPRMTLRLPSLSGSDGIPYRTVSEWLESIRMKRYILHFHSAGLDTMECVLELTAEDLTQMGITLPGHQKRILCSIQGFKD

[5] = target: Ribosomal protein S6 kinase alpha-1 (Homo sapiens, UniProt Q15418); test: Selectivity interaction (KinomeScan (DiscoverX)) EUB0000229b RPS6KA1; details: at 10 µM
[6] = target: T3, Phosphorylase b kinase gamma catalytic chain, liver/testis isoform (Homo sapiens) (UniProt P15735); test: Selectivity interaction (ProQinase) EUB0000171b PHKG2
T3 sequence (whole entry): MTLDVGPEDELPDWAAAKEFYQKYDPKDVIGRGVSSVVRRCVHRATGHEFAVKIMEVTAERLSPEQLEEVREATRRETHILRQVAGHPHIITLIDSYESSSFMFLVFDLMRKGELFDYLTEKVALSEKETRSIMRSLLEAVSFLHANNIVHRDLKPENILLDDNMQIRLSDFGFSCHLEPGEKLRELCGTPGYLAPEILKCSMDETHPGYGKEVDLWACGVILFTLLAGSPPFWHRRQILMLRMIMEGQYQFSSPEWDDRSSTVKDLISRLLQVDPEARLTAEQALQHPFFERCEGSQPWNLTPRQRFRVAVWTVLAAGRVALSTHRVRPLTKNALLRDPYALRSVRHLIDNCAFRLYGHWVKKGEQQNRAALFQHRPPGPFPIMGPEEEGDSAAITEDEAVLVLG

[7] = target: Serine/threonine-protein kinase MARK2 (Homo sapiens) (UniProt Q7KZI7); test: Selectivity interaction (SelectScreen profiling (Invitrogen)) EUB0000607a MARK2; details: at 2 µM
Serine/threonine-protein kinase MARK2 (Homo sapiens), sequence (Q7KZI7 whole entry): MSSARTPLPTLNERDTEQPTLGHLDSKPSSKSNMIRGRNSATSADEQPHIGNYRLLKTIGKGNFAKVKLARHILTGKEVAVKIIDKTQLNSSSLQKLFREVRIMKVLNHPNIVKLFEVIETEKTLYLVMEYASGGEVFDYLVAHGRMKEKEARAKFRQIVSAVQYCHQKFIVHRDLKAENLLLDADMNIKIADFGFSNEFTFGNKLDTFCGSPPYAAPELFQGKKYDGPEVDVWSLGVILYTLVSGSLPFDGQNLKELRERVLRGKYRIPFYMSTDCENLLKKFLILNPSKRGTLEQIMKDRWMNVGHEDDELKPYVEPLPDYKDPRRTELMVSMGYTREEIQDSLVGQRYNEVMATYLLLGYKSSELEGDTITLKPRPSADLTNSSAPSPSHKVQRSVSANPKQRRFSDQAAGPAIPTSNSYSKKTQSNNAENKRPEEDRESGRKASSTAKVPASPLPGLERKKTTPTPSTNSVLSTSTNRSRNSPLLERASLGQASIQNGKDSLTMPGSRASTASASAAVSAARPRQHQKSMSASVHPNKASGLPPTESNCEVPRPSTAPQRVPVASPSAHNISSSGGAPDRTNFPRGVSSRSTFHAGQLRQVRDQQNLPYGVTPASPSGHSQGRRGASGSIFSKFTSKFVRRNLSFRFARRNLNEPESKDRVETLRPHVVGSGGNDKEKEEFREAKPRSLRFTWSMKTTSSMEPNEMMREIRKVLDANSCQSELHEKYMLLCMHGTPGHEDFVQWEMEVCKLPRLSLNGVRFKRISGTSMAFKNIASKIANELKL

Serine/threonine-protein kinase 38-like (Homo sapiens), sequence (Q9Y2H1 2-464 limits assumed): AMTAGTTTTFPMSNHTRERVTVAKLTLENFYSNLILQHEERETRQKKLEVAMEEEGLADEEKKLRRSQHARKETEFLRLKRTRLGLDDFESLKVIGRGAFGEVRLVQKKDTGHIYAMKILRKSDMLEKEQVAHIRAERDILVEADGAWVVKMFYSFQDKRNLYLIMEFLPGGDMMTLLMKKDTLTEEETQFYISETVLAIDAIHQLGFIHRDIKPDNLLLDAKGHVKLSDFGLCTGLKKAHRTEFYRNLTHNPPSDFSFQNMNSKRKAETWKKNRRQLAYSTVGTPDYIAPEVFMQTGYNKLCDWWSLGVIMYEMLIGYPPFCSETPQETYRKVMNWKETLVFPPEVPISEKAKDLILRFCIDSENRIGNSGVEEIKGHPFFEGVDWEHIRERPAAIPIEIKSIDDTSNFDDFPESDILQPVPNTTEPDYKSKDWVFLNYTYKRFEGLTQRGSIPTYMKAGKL
Histone-lysine N-methyltransferase PRDM9 (Homo sapiens), sequence (Q9NQV7 whole entry, canonical isoform): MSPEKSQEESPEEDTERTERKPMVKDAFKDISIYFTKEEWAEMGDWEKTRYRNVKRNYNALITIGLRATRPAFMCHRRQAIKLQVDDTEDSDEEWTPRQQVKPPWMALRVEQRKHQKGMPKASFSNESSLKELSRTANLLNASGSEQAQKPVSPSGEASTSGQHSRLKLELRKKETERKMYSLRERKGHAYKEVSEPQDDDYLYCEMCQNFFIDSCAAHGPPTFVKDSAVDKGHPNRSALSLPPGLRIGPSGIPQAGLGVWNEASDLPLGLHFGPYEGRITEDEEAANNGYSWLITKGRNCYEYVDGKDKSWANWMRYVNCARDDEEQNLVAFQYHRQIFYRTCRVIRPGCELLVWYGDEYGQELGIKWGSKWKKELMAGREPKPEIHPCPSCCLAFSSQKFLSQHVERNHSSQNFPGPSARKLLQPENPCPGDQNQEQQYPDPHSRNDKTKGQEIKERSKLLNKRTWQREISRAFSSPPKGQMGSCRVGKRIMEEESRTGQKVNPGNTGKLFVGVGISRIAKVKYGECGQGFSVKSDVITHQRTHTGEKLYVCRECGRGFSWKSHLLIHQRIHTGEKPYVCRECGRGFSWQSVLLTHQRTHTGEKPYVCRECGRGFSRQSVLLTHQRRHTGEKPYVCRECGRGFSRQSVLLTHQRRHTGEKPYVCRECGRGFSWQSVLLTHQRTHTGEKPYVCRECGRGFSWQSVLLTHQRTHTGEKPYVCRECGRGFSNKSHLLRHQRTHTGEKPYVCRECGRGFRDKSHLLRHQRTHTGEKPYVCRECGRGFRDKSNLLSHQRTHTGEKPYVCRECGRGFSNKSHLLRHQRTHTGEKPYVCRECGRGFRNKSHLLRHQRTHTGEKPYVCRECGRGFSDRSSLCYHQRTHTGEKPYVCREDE
Ribosomal protein S6 kinase alpha-1, sequence (Q15418 whole entry, canonical isoform): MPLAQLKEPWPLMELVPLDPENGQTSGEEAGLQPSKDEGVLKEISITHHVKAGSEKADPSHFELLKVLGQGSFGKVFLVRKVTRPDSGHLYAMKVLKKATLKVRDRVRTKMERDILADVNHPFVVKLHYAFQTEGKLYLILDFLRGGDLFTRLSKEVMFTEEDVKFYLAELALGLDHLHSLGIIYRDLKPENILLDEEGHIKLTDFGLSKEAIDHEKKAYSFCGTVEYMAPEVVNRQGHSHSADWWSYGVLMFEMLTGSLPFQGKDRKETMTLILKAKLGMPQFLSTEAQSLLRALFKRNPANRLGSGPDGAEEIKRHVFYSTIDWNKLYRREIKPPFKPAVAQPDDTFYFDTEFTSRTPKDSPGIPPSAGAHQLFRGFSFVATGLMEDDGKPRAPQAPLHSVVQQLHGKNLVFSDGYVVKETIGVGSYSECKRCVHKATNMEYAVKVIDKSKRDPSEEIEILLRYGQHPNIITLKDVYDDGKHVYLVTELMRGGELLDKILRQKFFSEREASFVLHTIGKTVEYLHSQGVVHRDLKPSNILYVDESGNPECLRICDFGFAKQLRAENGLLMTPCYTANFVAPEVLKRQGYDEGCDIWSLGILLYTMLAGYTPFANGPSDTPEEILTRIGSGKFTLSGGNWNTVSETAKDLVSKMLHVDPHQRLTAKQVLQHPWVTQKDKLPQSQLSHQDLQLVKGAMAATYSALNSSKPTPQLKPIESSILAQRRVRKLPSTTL

CC[C@@H]1[C@H](F)C(=O)N[C@@H]1COc1nccc2cc(C(N)=O)c(OC)cc12 [ZIMLOVISERTIB]
% of inhibition [1]: 7.6%

CNCCN1CCC(c2cc(CN(C)C(=O)c3cccc(Oc4ccccc4)c3)ccn2)CC1
% activity [2]: > 90%

Cc1cc(F)c(C(=O)Nc2cccc(-c3nncn3C(C)C)n2)cc1-n1cnc(C2CC2)c1
% of control [3]: 92%

CCN(CC)CCCCNc1ncc2cc(-c3cc(OC)cc(OC)c3)c(NC(=O)NC(C)(C)C)nc2n1
% of control [4]: 100%

COc1cc(N(C)c2ccnc3ccc(C(F)(F)F)cc23)cc(OC)c1OC
% binding [5]: 93%

C=CC(=O)Nc1cccc(C(=O)Nc2ccc(Nc3cc(-c4[nH]c(SC)nc4C)ccn3)cc2)c1
% of control ([6]; at 1 µM): 94% | % of control ([6]; at 5 µM): 96%

CNC(=O)Nc1ccc(-c2nc(N3CC4CCC(C3)O4)c3cnn(C4CCC5(CC4)OCCO5)c3n2)cc1
% of inhibition [7]: 12%
